Experimental data taken from publication PMC8912030, “Secondary Metabolites with Anti-Inflammatory from the Roots of Cimicifuga taiwanensis” (Molecules, 2022).
Where two headings read alike, the source gives them in different places. Values belong to the molecule of their own block, whether it stands above or below them.

Experiments:
[1] = Cell viability (MTT assay); type: cell-based, mouse; settings: mouse
Description: (§1) The cytotoxic effects were tested using an MTT experiment.
(§2) The mouse macrophage cell line (RAW 264.7) was obtained from the Bioresource Collection and Research Center (BCRC 60001) and cultured at 37 °C in Dulbecco’s Modified Eagle’s Medium (DMEM) supplemented with 10% fetal bovine serum (Gibco), 4.5 g/L glucose, 4 mM glutamine, penicillin (100 units/mL), and streptomycin (100 μg/mL) in a humidified atmosphere in a 5% CO2 incubator. The cells were treated with 10, 25, and 50 μM of natural products in the presence of 1 μg/mL lipopolysaccharide (LPS, Sigma-Aldrich) for 20 h. The concentration of NO in the culture supernatants was determined to be nitrite, a major stable product of NO, by a Griess reagent assay, and cell viabilities were determined using the MTT assay as described previously.

RAW 264.7 macrophages = assay: Cell viability (MTT assay); type: cell-based, mouse
Description: as §1, §2

[2] = tested on: LPS-activated NO production in RAW 264.7 macrophages; assay: Inhibition of LPS-induced NO production (Griess reagent assay, nitrite); type: cell-based, mouse; settings: for NO inhibitory activity (in words): LPS-induced NO production in RAW 264.7; for IC50: Mus musculus, read-out: IC50 NO; for fold NO inhibitory activity compared with quercetin: ratio to quercetin IC50 34.58 μM
Description: The anti-inflammatory activities of the 5 isolates (2–6) in sufficient amounts were evaluated by examining their inhibitory effects on lipopolysaccharide (LPS)-induced inducible nitric oxide synthase (iNOS)-dependent NO 6 production in the murine macrophage cell line RAW 264.7 (Table 4). From the results of our anti-inflammatory tests, the following conclusions could be drawn.
as §2

[3] = RAW264.7, RAW 264.7, 1 μg/mL LPS, 20 h, mean ± SEM (n = 4) of 3 independent experiments

SMILES: CC1CC2OC3(OC2C(C)(C)O)C1C1(C)CCC24CC25C=CC(=O)C(C)(C)C5CC=C4C1(C)C3O (stereo not drawn) [Compound 5, cimicitaiwanin E]
viability at 20 h, 50 µM [1]: 89%
Cell Viability (% Control) (RAW 264.7 macrophages; 50 µM): 88.54 ± 1.50 % Control
NO inhibitory activity (in words) [2]: moderate
NO inhibitory activity (in words) ([2]; listed as Cimicitaiwanin E): showed inhibitory activities
IC50 ([2]; RAW264.7, 20 h): 24.6 ± 4.97 µM

SMILES: CC(=O)OC(C)(C)C1OC23OC1CC(C)C2C1(C)C(O)CC2=C(CCC4C5(CCC(O5)C4(C)C)C2)C1(C)C3O (stereo not drawn) [Compound 2, 25-O-acetyl-12β-hydroxyacerinol]
viability at 20 h, 50 µM [1]: < 80%
Cell Viability (% Control) (RAW 264.7 macrophages; 50 µM): 69.14 ± 2.87 % Control
IC50 [2, 3]: 8.37 ± 3.25 µM
fold NO inhibitory activity compared with quercetin [2]: about four

SMILES: O=c1c(O)c(-c2ccc(O)c(O)c2)oc2cc(O)cc(O)c12 [Quercetin, quercetin, reference compound]
Cell Viability (% Control) (RAW 264.7 macrophages; RAW 264.7, MTT, mean ± SEM, concentration not given in table (text: 50 μM)): 95.56 ± 1.91 % Control
IC50 [2, 3]: 34.6 ± 2.34 µM

Second part, led by results:

melting point: 103 to 105 °C
IC50 [2, 3]: 6.54 ± 0.87 µM
SMILES: CC(=O)OC(C)(C)C1OC23OC1CC(C)C2C1(C)CC(=O)C2=C(C(O)CC4C5(CCC(O5)C4(C)C)C2)C1(C)C3O (stereo not drawn) [Compound 3, 25-O-acetyl-7β-hydroxy-11-oxoacerinol]
viability at 20 h, 50 µM [1]: 95%
Cell Viability (% Control) (RAW 264.7 macrophages; 50 µM): 95.53 ± 3.39 % Control
NO inhibitory activity (in words) [2]: showed inhibitory activities
fold NO inhibitory activity compared with quercetin [2]: five

IC50 [2, 3]: 15.4 ± 0.85 µM
SMILES: CC(C=CC1C(C)CC(O)CC1(C)C)=CC(=O)O [Compound 6, rel-(2E,4E)-5-((3S,5R,6R,)-4-hydroxy-2,2,6-trimethylcyclohexyl)-3-methylpenta-2,4-dienoic acid]
viability at 20 h, 50 µM [1]: 87%
Cell Viability (% Control) (RAW 264.7 macrophages; 50 µM): 86.84 ± 2.95 % Control
NO inhibitory activity (in words) [2]: showed inhibitory activities
fold NO inhibitory activity compared with quercetin [2]: two

IC50 [2, 3]: 10.1 ± 0.47 µM
SMILES: CC(=O)OC(C)(C)C1OC23OC1CC(C)C2C1(C)CCC2=C(CCC4C(=CCC(OC5OCC(O)C(O)C5O)C4(C)C)C2)C1(C)C3O (stereo not drawn) [Compound 4, cimicitaiwanin D]
viability at 20 h, 50 µM [1]: 91%
Cell Viability (% Control) (RAW 264.7 macrophages; 50 µM): 91.12 ± 4.22 % Control
NO inhibitory activity (in words) [2]: showed inhibitory activities
fold NO inhibitory activity compared with quercetin [2]: three
